Measurements as given in publication PMC11412900 (Molecular Psychiatry, 2024).
Where two headings read alike, the source gives them in different places.

Legend:
[1] = test system: core body temperature in mice; assay: Core body temperature measurement; assay type: in vivo
Description: Rectal temperature of mice (N = 8–10 per group) was measured 60 min after i.p. injection of the corresponding compound (see previous section “Head twitch response”). This time point was chosen according to the maximal effect observed in pilot experiments. A thermocouple probe (YS451, Panlab, Barcelona, Spain) connected to a digital thermometer (TMP812RS, Panlab, Barcelona, Spain) was inserted 2 cm into the rectum and steady temperature readout was obtained after 10 s of insertion.
(§1) Data were expressed as means±standard deviation (SD). Competition, release and functional assays, and substrate-induced current curves were plotted and fitted by non-linear regression to obtain the IC50, EC50, and Emax values. For behavioral studies, data were fitted by non-linear regression and pED50 and Emax values (with the corresponding 95% CI) were estimated by means of a software (GraphPad Prism 10) that further extrapolates the data. The Cheng-Prusoff equation was used to calculate Ki (affinity): Ki = […]/(1 + [radioligand-concentration/Kd]). HTR curves were fitted using a Gaussian equation as described. Data from batch release assays were statistically analyzed with a mixed-effects model, employing Šidák’s correction for multiple comparisons. Total release at each concentration and the behavioral experiments with the corresponding antagonists were statistically analyzed using one-way ANOVA, followed by Tukey’s post-hoc test. Molecular volume (van der Waals) was calculated using a grid approximation (spacing 0.75 Å). logP was calculated using Molinspiration Cheminformatics software. For in vivo studies, one-way ANOVA with Dunnet’s post-hoc test was used to compare all conditions to saline in dose-response experiments when data were normally distributed. Otherwise, a non-parametric test (Kruskall-Wallis with Dunn’s post-hoc test) was used. Alpha was set at 0.05. Outliers were excluded following ROUT’s method (Q = 0.1%). All statistical analyses and Pearson correlations were conducted using GraphPad Prism 10 software (GraphPad software, San Diego, CA, USA).

[2] = test system: head twitch response in mice; assay: Head twitch response (HTR); assay type: in vivo; settings: for HTR Emax (95% CI): 10-min period; for Effect of antagonist pretreatment on tryptamine-induced HTR: antagonist s.c. 1 mg/kg 10 min before tryptamine i.p. 10 mg/kg
Description: HTR studies were adapted from. Mice (N = 8–10 per group) were injected intraperitoneally (i.p.) with saline or the appropriate tryptamine dose (0.3, 1, 3, 10, or 30 mg/kg) and placed into the observation arena (25 × 25 × 40 cm). A camera mounted above the observation cage recorded the mice for the next 10 min after the injection. Another batch of animals (N = 8–10) received subcutaneous injections of either saline or the respective antagonist (WAY100635 1 mg/kg for 5-HT1AR or ketanserin 1 mg/kg for 5-HT2AR). After a 10-min interval, the animals were i.p. injected with the corresponding tryptamine (10 mg/kg) and placed in the observation arena. Animal behavior was recorded for the next 10 min after the last injection, as mentioned before. Video recordings were examined by two blind observers blinded to the treatments, who assessed the number of head twitches, defined as a rapid rotational jerk of the head which is not contiguous with any grooming behavior [39].
as §1

[3] = biological target: T1, SERT (Homo sapiens, UniProt P31645); assay: Radioligand binding, [3H]imipramine displacement
T1 construct: YFP (yellow-fluorescent protein); expressed in transfected cells
T1 sequence (P31645 whole entry): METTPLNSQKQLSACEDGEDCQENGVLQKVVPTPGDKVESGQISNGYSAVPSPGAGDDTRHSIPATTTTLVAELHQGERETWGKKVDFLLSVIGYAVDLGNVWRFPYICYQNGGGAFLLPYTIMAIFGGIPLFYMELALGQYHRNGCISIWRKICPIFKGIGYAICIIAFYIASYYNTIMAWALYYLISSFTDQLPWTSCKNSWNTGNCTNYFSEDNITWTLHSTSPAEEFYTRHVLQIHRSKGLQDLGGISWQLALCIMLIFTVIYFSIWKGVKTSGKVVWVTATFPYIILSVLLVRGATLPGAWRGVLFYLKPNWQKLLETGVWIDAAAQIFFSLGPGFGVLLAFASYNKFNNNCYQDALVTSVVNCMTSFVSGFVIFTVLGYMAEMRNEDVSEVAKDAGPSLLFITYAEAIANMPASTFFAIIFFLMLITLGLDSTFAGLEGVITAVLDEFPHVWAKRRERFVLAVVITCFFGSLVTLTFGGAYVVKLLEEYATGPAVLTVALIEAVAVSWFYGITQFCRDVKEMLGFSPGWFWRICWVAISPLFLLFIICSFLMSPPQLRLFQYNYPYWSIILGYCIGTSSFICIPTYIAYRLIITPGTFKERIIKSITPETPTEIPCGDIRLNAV
Description: (§2) Binding assays were performed as described previously. Briefly, membrane preparations expressing h5-HT1AR, h5-HT2AR or hSERT (see Supplementary Material) were incubated with radiolabeled selective ligands 0.4 nM [^3H]8-OH-DPAT, 1 nM [^3H]ketanserin or 3 nM [^3H]imipramine, respectively. The drugs were diluted in the corresponding binding buffer and tested at increasing concentrations in duplicate. Binding reactions were performed in tubes containing the drug dilutions; 25 μl of the corresponding radioligand; and the membranes (10 μg and 5 μg/500 μL for 5-HT1AR and 5-HT2AR, respectively, and 15 μg/100 μL for hSERT), all diluted in binding buffer. […] Incubation was performed for 1 h at 27 °C for 5-HT1A/2AR and 22 °C for hSERT, according to the manufacturer’s protocol (Perkin Elmer, Inc., Waltham, MA, USA) and previous studies - saturation and kinetic experiments, respectively. The binding reactions were stopped by rapid filtration through GF/B glass microfiber filters pre-soaked with 0.5% polyethyleneimine and washing with ice-cold wash buffer. The filters were placed into vials and scintillation cocktail was added. The trapped radioactivity was quantified. Specific binding was defined as the difference between total binding (binding buffer alone) and non-specific binding. Experiments were conducted per duplicate for at least three independent experiments.
(§3) The generation and maintenance of HEK293 cells stably expressing the yellow-fluorescent protein (YFP)-tagged version of the human isoform of SERT (hSERT) (Perkin Elmer, Waltham, MA, USA) was carried out as described previously. For uptake inhibition and batch release assays, cells were seeded onto previously poly-D-lysine (PDL)-coated 96-well plates at a density of 0.036 million cells per well [5]. For superfusion release assays, cells were seeded onto a previously coated with PDL 6 channel µ-slide at a density of 0.08 million cells per channel. Prior to patching, cells were grown in DMEM containing 10% FBS, Zeocin (150 µg/mL) and Blasticidin (6 µg/mL) for positive selection of transporter-expressing clones. The cells were seeded at a low density on PDL-coated 35 mm plates 24-48 hr prior to patching. For membrane preparation, HEK293 cells expressing hSERT transporters were harvested from 80–90% confluent dishes as described elsewhere. Protein concentration was determined using the Bio-RadProtein Reagent (Bio Rad Laboratories, Hercules, CA, USA). Membrane preparations were stored at −80°C until use. Generation and maintenance of CHO-K1 cells expressing the human isoform of 5-HT2AR (h5-HT2AR) was carried out as described in the manufacturer’s protocol (Perkin Elmer, Waltham, MA, USA). Routine DAPI-Staining assays tested negative in mycoplasma contamination.

[4] = biological target: T2, h5-HT1AR (Homo sapiens, UniProt P08908); assay: Radioligand binding, [3H]8-OH-DPAT displacement; settings: 0.4 nM [3H]8-OH-DPAT, N ≥ 3; read-out: 5-HT1AR Ki ± SD
T2 construct: purchased Perkin Elmer, Inc. (Waltham, MA, USA)
T2 sequence (P08908 1-422): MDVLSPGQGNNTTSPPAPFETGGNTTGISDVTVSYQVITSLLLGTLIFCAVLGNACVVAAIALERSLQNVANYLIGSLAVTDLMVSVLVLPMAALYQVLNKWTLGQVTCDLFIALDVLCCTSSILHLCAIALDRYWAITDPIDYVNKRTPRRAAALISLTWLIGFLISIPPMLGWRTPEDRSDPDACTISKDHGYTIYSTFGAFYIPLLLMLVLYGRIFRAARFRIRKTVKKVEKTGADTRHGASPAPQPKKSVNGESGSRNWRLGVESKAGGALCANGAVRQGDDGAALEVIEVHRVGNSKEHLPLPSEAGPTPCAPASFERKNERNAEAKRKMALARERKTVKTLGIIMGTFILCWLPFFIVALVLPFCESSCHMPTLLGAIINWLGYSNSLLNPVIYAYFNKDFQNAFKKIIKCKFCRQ
Description: as §2

[5] = biological target: T3, h5-HT2AR (Homo sapiens, UniProt P28223); assay type: binding; settings: 1 nM [3H]ketanserin, N ≥ 3; read-out: 5-HT2AR Ki ± SD
T3 construct: purchased Perkin Elmer, Inc. (Waltham, MA, USA)
T3 sequence (P28223 whole entry): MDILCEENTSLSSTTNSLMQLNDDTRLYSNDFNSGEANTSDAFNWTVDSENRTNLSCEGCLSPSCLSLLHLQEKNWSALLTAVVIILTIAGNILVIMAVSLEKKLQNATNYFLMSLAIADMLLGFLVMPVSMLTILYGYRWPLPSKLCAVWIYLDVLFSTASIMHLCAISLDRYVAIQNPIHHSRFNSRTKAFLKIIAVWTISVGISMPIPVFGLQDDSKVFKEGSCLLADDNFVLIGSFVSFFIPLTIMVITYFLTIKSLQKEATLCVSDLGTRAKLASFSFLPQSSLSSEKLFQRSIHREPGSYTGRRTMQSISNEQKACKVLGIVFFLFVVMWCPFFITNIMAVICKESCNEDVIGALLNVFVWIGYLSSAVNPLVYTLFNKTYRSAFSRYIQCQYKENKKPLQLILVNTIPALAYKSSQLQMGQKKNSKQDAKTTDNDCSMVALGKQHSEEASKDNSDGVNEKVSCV
Description: as §2

[6] = test system: horizontal locomotor activity in mice; assay: Horizontal locomotor activity (HLA); assay type: in vivo; settings: i.p., 30 min; for HLA (hypolocomotion) Emax (95% CI): total traveled distance
Description: The HLA test was carried out according to a previous study. The same animals (N = 8–10 per group) used for the assessment of HTR were recorded for 30 min in an observation arena, under low-light conditions with white noise. Video recordings were processed using a tracking software (Smart 3.0 Panlab, Barcelona, Spain) to measure the total traveled distance.
as §1

[7] = biological target: T1, SERT; assay: [3H]5-HT uptake inhibition in HEK293 cells expressing hSERT; assay type: cell-based
Description: See the Supplementary Material for cell culture procedures. The medium was removed from each well and replaced with 200 μL/well of Krebs-HEPES-Buffer (KHB). The cells were pre-incubated for 5 min with different concentrations of drug in KHB at 50 μL/well. […] The incubation solution was aspirated and the cells were washed with ice-cold KHB and lysed with 1% sodium dodecyl sulfate (SDS). The lysate was collected into vials and scintillation liquid was added. The radioactivity was quantified using a beta-scintillation counter (Perkin Elmer, Waltham, MA, USA). Non-specific uptake was determined in the presence of 30 μM paroxetine. Data were expressed as percentage of control uptake (absence of tryptamine).
as §3

[8] = biological target: T1, SERT; assay: Whole-cell patch clamp, transporter-mediated currents in HEK293 cells; assay type: cell-based
Source text: Whole-cell patch clamping was used to measure the transporter-mediated currents and performed as previously described. […] Cells were continuously superfused by a DAD-12 superfusion system and an 8-tube perfusion manifold (ALA Scientific Instruments in Farmingdale, NY, USA), which allowed to apply a physiological external solution. The pipette solution mimics the internal ionic composition of a cell. […] Passive holding currents were subtracted, and the traces were filtered using a 50-Hz digital Gaussian low-pass filter for analysis purposes. Five independent experiments were performed.

[9] = biological target: T1, SERT; assay: Batch release of preloaded [3H]5-HT from HEK293 cells expressing SERT; assay type: cell-based; settings: with or without monensin, pCA as positive control
Description: Batch release is a functional radiometric assay to assess transporter-mediated efflux. […] Subsequently, cells were washed three times with KHB and equilibrated for 10 min in KHB or KHB+monensin (10 µM). […] 10 µM pCA and 0.05 µM paroxetine were used as positive and negative controls, respectively. Liquid scintillation cocktail was added both to the wells containing cells (200 µL) and to the transferred supernatant (100 µL). Total radioactivity determined from/in the remaining lysate of the cells plus the transferred supernatant was set as 100%, and the radioactivity determined in each fraction was expressed as a percentage thereof. Assays were performed per duplicate for five independent experiments.

[10] = mice, i.p., 60 min after injection
[11] = mice, i.p., 10 min after injection
[12] = 3 nM [3H]imipramine, N ≥ 3, read-out: SERT Ki ± SD
[13] = read-out: 5-HT uptake inhibition IC50 ± SD, HEK293 hSERT, N ≥ 3

| SMILES | Change in body temperature ED50 [1, 10] | HTR Emax (95% CI) ([2]; mice, i.p.) | HTR ED50 [2, 11] | Ki [3, 12] | Ki [4] | Ki [5] | HLA (hypolocomotion) ED50 [6] | HLA (hypolocomotion) Emax (95% CI) [6] | IC50 [7, 13] | Effect of antagonist pretreatment on tryptamine-induced HTR [2] | also measured |
| --- | --- | --- | --- | --- | --- | --- | --- | --- | --- | --- | --- |
| COc1ccc2[nH]cc(CCNC(C)C)c2c1 [5-MeO-NIPT] | 7.35 mg/kg | 7.58 (5.46–9.71) HTR events | 4.85 mg/kg | 8.59 ± 1.71 µM | 0.0157 ± 0.0023 µM | 0.123 ± 0.038 µM | 1.96 mg/kg | 77.64 (69.78–85.50) % reduction | 32.1 µM |  |  |
| COc1ccc2[nH]cc(CCN(C)C)c2c1 [5-MeO-DMT, 5-methoxy-N,N-dimethyltryptamine] |  | 38.1 (31.7–44.5) HTR events |  |  |  |  |  | 41.72 (32.18–51.26) % reduction |  |  | EC50 [8]: 2.6 µM; SERT-mediated inward current Emax ([8]; normalized to current elicited by 5-HT 10 µM): 0.41; SERT substrate type ([8]; whole-cell patch clamp): partial SERT substrates; ED50 ([1]; Mus musculus, ip, 1 h, mice, i.p., 60 min after injection, read-out: Change in body temperature ED50): 4.75 mg/kg; ED50 ([2]; Mus musculus, ip, 10 min, mice, i.p., 10 min after injection): 4.84 mg/kg; Ki [3]: 14.5 µM; 5-HT releasing activity [9]: capable of evoking 5-HT release; ED50 ([6]; Mus musculus, ip, 0.5 h, read-out: HLA (hypolocomotion) ED50): 0.976 mg/kg; IC50 [7]: 50.1 µM |
| O=C(c1ccc(F)cc1)C1CCN(CCn2c(=O)[nH]c3ccccc3c2=O)CC1 [ketanserin, reference compound] |  |  |  |  |  |  |  |  |  | prevented HTR response |  |
| COc1ccccc1N1CCN(CCN(C(=O)C2CCCCC2)c2ccccn2)CC1 [WAY100635, reference compound] |  |  |  |  |  |  |  |  |  | the number of head twitches increased significantly | Effect of antagonist pretreatment on tryptamine-induced decrease in body temperature ([1]; antagonist s.c. 1 mg/kg before tryptamine i.p. 10 mg/kg, 60 min): the decrease in body temperature was lower |
| C=CCN(C)CCc1c[nH]c2ccc(OC)cc12 [5-MeO-MALT] | 10.2 mg/kg | 27.6 (23.2–32.0) HTR events | 0.796 mg/kg | 4.01 ± 0.417 µM | 0.00596 ± 0.00047 µM | 0.0529 ± 0.009 µM | 7.32 mg/kg | 85.40 (55.18–115.6) % reduction | 44.1 µM |  |  |
